# Read-outs that look alike come from different tables or passages of the source.
# How the values were obtained:
# [1] = test system: BT474 cells; assay: In vitro cytotoxicity, ATPlite luminescence assay; type: cell-based; settings: Homo sapiens, BT-474; BT474 (HER2+), 48 h treatment + 24 h fresh medium, µM in DXR
# Description: (§1) For cytotoxicity experiments, four human cancer cell lines were used, that is, three HER2+ BT474 (ATCC HTB‐20), SKBR3 (ATCC HTB‐ 30) and SKOV3 (ATCC HTB‐77), and the HER2‐ MDA‐MB‐231 (ATCC HTB‐26). Cells were maintained in DMEM medium supplemented with 10% fetal bovine serum (FBS), 1% glutamine, 1% penicillin‐streptomycin, in humidified conditions at 37 °C with 5% CO2.
# (§2) The cytotoxic effect of formulations was evaluated on HER2+ (BT474, SKBR3, and SKOV3) and HER2‐ (MDA‐MB‐231) cell lines by means of the ATPlite Luminescence ATP Detection Assay System. The cytotoxic effect of targeted DXR‐loaded liposomal formulations was compared to that of non‐targeted DXR‐loaded liposomes and free DXR (positive control). Cells treated only with the medium were used as control. Briefly, the cells were seeded in black 96‐well plates at a density of 5000 cells/well (SKBR3, SKOV3, and MDA‐MB‐231) and 7500 cells/well (BT474). After 24 h, cells were treated with increasing concentrations of the liposomal formulations (0.01–50 µM in DXR, n = 7) for 24 (SKBR3, SKOV3, and MDA‐MB‐231) or 48 (BT474) h. At the end of the exposure, treatments were replaced by fresh complete medium for 24 h. To quantify ATP production, cells were treated following the manufacturer's instructions, and luminescence was quantified by means of a Victor Nivo multi‐plate reader (PerkinElmer, Waltham, MA, USA). The percentage of cell viability was determined as (luminescencetreated cells/luminescencecontrol cells) × 100. IC50 values were calculated using GraphPad Prism 9.0 (San Diego, CA, USA) by a nonlinear regression model.
# [2] = test system: SKBR3 cells; assay: In vitro cytotoxicity, ATPlite luminescence assay; type: cell-based; settings: Homo sapiens, SK-BR-3; SKBR3 (HER2+), 24 h treatment + 24 h fresh medium, µM in DXR
# Description: as §1, §2
# [3] = test system: SKOV3 cells; assay: In vitro cytotoxicity, ATPlite luminescence assay; type: cell-based; settings: Homo sapiens, SK-OV-3; SKOV3 (HER2+), 24 h treatment + 24 h fresh medium, µM in DXR
# Description: as §1, §2
# [4] = Pharmacokinetic study in rats; type: in vivo, Sprague Dawley rats; settings: 2.5 mg kg^−1 in DXR i.v.; for half-life: female, Sprague Dawley, rat, plasma, iv, 2.5 mg/kg, bicompartmental model
# Description: DXR was extracted by treating 50 µL of plasma with 10 µL of 1 M Triton X‐100 and 580 µL of 81 mM HCl in isopropanol to allow plasma proteins precipitation. After overnight incubation at 4 °C, samples were centrifuged for 3 min × 3000 rpm and the supernatants were analyzed using an FP‐6500 Jasco spectrofluorometer (λ ex = 470 nm; λ em = 584 nm). DXR concentration in each plasma sample was extrapolated through a calibration curve of standard solutions of either DXR or DXR‐loaded SL for the liposomal formulations. The pharmacokinetic analysis was performed using the PKSolver 2.0 software by applying a bicompartmental model.
# [5] = Toxicological study in rats (blood count, plasma biochemistry, histology); type: in vivo, Sprague Dawley rats
# Text: The study protocol was approved by the Ethics Committee of the University of Padova and the Italian Ministry of Health (Prot. No. 938/2016‐PR obtained on October 10, 2016), and animals were handled in compliance with national and international guidelines, that is, the Italian Legislative Decree 26/2014 and the “Guide for the Care and Use of Laboratory Animals” by the National Research Council of the National Academies. Female Sprague Dawley rats (140–190 g) were randomly divided into groups of 6 rats each. A dose of 2.5 mg kg^−1 in DXR of either free drug or DXR‐loaded liposomal formulations (SL, SIL, SSIL2) was administered via tail vein to the rats previously anesthetized with isoflurane gas (mixed with O2 in enclosed cages). At scheduled time points, blood samples (≈200 µL) were collected from the tail into heparin‐treated tubes and thereafter immediately centrifuged 15 min × 1500 × g to separate plasma. Rats were euthanized with isoflurane anesthesia 48 h after administration and the blood was collected with an intracardiac puncture to measure complete blood count and plasma biochemistry. These measurements were performed by means of standard laboratory tests.^[ [27] ^] After sacrifice, the main organs (liver, spleen, lungs, kidneys, heart, brain, ovaries) were collected, weighed, washed with saline solution, and frozen in liquid nitrogen. An appropriate amount of each organ was placed in formalin for histological analysis.^[ [28] ^]
smiles,measurement,setting,value
"COc1cccc2c1C(=O)c1c(O)c3c(c(O)c1C2=O)C[C@@](O)(C(=O)CO)C[C@@H]3O[C@H]1C[C@H](N)[C@H](O)[C@H](C)O1 [DXR, Doxorubicin]",IC50,[1],0.08 ± 0.003 µM
same,IC50,[2],0.034 ± 0.026 µM
same,IC50,[3],0.092 ± 0.004 µM
same,AUC0‐inf,[4],60 ± 31 ng·h/mL
same,half-life,[4]; read-out: t 1/2 alpha (converted),34.4 ± 21.6 min
same,half-life,[4]; read-out: t 1/2 beta (converted),79.1 ± 48.7 min
same,"Anemia (red blood cells, hemoglobin, hematocrit decreased versus controls)","[5]; 2.5 mg kg^−1 in DXR i.v., 48 h",anemic
same,Erythrocytes (RBCs),"[5]; 2.5 mg kg^−1 in DXR i.v., 48 h",4.61e+12 L⁻¹
same,Hematocrit,"[5]; 2.5 mg kg^−1 in DXR i.v., 48 h",0.286 L/L
same,Hemoglobin,"[5]; 2.5 mg kg^−1 in DXR i.v., 48 h",93 ± 10 g/L
same,Liver histology,"[5]; 2.5 mg kg^−1 in DXR i.v., 48 h",small and isolated granulomatous lesion
same,MCH,"[5]; 2.5 mg kg^−1 in DXR i.v., 48 h",20.3 ± 0.4 pg
same,MCHC,"[5]; 2.5 mg kg^−1 in DXR i.v., 48 h",329 ± 20 g/L
same,MCV,"[5]; 2.5 mg kg^−1 in DXR i.v., 48 h",61.8 ± 2.9 fL
same,Platelets (PLTs),"[5]; 2.5 mg kg^−1 in DXR i.v., 48 h",811 ± 402 x109/L
same,RDW,"[5]; 2.5 mg kg^−1 in DXR i.v., 48 h",11.8 ± 0.5%
same,Spleen histology,"[5]; 2.5 mg kg^−1 in DXR i.v., 48 h",slight increased hematopoiesis
same,Leukocytes (WBCs),"[5]; 2.5 mg kg^−1 in DXR i.v., 48 h after administration",2.05 ± 1.15 x109/L
same,Glucose,"[5]; plasma biochemistry, 2.5 mg kg^−1 in DXR i.v., 48 h",10.7 ± 0.8 mmol/L
same,ALP,"[5]; plasma biochemistry, 48 h",143 ± 36 U/L
same,ALT,"[5]; plasma biochemistry, 48 h",20 ± 6 U/L
same,AST,"[5]; plasma biochemistry, 48 h",78 ± 16 U/L
same,Albumin,"[5]; plasma biochemistry, 48 h",42 ± 3 g/L
same,Calcium,"[5]; plasma biochemistry, 48 h",2.67 ± 0.09 mmol/L
same,Chloride,"[5]; plasma biochemistry, 48 h",102 ± 2 mmol/L
same,Creatinine,"[5]; plasma biochemistry, 48 h",16 ± 2 µM
same,Direct bilirubin,"[5]; plasma biochemistry, 48 h",0.3 ± 0.2 µM
same,Inorganic Phosphorous,"[5]; plasma biochemistry, 48 h",2.45 ± 0.16 mmol/L
same,Potassium,"[5]; plasma biochemistry, 48 h",3.9 ± 0.4 mmol/L
same,Sodium,"[5]; plasma biochemistry, 48 h",142 ± 1 mmol/L
same,Total bilirubin,"[5]; plasma biochemistry, 48 h",0.4 ± 0.2 µM
same,Total cholesterol,"[5]; plasma biochemistry, 48 h",64 ± 9 mg/dL
same,Triglycerides,"[5]; plasma biochemistry, 48 h",64 ± 37 mg/dL
same,Urea,"[5]; plasma biochemistry, 48 h",4.7 ± 0.2 mmol/L
